Data reported in patent publication US20060264460A1 (Wyeth, priority 2005, published 2006).

Target: T1, human Cot/Tpl2 kinase (Homo sapiens, UniProt P41279)
T1 construct: human Cot/Tpl2 kinase construct encoding residues 30-398; 6His (N); made in house; host or cells: Sf9 insect cells, baculovirus system (BD Biosciences)
Assay: Tpl2/Cot kinase assay: GST-MEK1 phosphorylation detected by ELISA (DELFIA Eu)
Format: biochemical
Details: 0.4 nM Tpl2, 35 nM GST-MEK1, 50 uM ATP, 1 h at 30° C.
Protocol: Sf9 cells expressing the kinase were lysed in 50 mM NaPhosphate pH=8; 300 mM NaCl; 5 mM imidazole; 0.1 mM EGTA; 25 mM beta-glycerophosphate; 1% TX-100, 1% glycerol; 6 mM beta-mercaptoethanol and protease inhibitors. The lysate was clarified by centrifugation and was loaded onto a Ni-Sepharose column. The column was washed with 50 mM NaPhosphate pH=8; 300 mM NaCl; 15 mM imidazole; 1% glycerol; and 6 mM beta-mercaptoethanol. His-Tpl2 was eluted with 50 mM NaPhosphate pH=8; 300 mM NaCl; 250 mM imidazole; 1% glycerol; and 6 mM beta-mercaptoethanol. The eluted protein was further purified by size exclusion chromatography. Fractions corresponding to monomeric Tpl2 were then used in the assay.
Tpl2/Cot activity was directly assayed using GST-MEK1 as a substrate. GST-MEK1 phosphorylation on serine residues 217 and 221 was detected by ELISA. 0.4 nM Tpl2 was incubated with 35 nM GST-MEK1 in a kinase reaction buffer containing 20 mM MOPS pH=7.2; 50 uM ATP; 20 mM MgCl2; 1 mM DTT; 25 mM β-glycerophosphate; 5 mM EGTA; and 1 mM sodium orthovanadate for 1 h at 30° C. The compounds of the inventions solubilized in 100% DMSO were pre-diluted in assay buffer so that the final concentration of DMSO in the reaction was 1%. The kinase reaction was carried out in 100 ul volume on 96 well plates. The kinase reaction was then stopped with the addition of 100 mM EDTA. […] After a 1 hour incubation at room temperature, the detection plate was washed 4 times with TBST (TBS+0.05% Tween 20) and then incubated for another hour at room temperature with anti phospho-MEK1 antibody (Cell Signaling) 1:1000 in 10 mM MOPS 7.5; 150 mM NaCl; 0.05% Tween 20; 0.1% Gelatin; 0.02% NaN3; and 1% BSA. The detection plate was washed again and incubated for 30 min with DELFIA Europium (Eu) labeled goat anti-rabbit IgG (Perkin-Elmer), 1:4000 in the same buffer used for the primary incubation. After a final wash, Eu detection solution was added to each well and the Eu signal was measured in a Wallac Victor^2 Multilabel Counter. IC50 calculations were performed using the XLfit software package (IDBS, Guildford, UK).

T1 sequence (P41279 30-398): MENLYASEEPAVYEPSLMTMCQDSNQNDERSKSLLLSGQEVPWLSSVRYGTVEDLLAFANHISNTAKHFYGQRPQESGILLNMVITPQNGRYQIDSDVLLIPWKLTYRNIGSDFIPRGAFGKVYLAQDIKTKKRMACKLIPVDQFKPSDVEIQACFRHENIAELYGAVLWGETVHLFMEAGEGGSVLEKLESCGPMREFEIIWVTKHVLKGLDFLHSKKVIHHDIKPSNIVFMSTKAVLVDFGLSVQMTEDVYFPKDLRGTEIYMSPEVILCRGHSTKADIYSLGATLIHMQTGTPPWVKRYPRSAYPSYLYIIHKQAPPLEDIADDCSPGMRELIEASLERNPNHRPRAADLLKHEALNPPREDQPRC

IC50 [nM] | Compound
14700 | CC(C)(C)OC(=O)COc1ccc(C#N)cc1CNc1ccc2ncc(C#N)c(Nc3ccc(F)c(Cl)c3)c2c1 [Example 45, (2-{[4-(3-Chloro-4-fluoro-phenylamino)-3-cyano-quinolin-6-ylamino]-methyl)-4-cyano-phenoxy)-acetic acid tert-butyl ester]
30000 | N#Cc1cnc2ccc(NC[C@H]3CCCN3)cc2c1Nc1ccc(F)c(Cl)c1 [Example 46, 4-(3-Chloro-4-fluoro-phenylamino)-6-[(D-pyrrolidin-2-ylmethyl)-amino]-quinoline-3-carbonitrile]
13 | COc1cc(NCc2cnc[nH]2)cc2c(Nc3ccc(F)c(Cl)c3)c(C#N)cnc12 [Example 47, 4-(3-Chloro-4-fluoro-phenylamino)-6-[(3H-imidazol-4-ylmethyl)-amino]-8-methoxy-quinoline-3-carbonitrile]
1500 | COCCOc1ccc(Br)cc1CNc1ccc2ncc(C#N)c(Nc3ccc(F)c(Cl)c3)c2c1 [Example 48, 6-[5-Bromo-2-(2-methoxy-ethoxy)-benzylamino]-4-(3-chloro-4-fluoro-phenylamino)-quinoline-3-carbonitrile]
> 40000 | N#Cc1cnc2ccc(NCc3c[nH]c4c(F)c(F)c(F)c(F)c34)cc2c1Nc1ccc(F)c(Cl)c1 [Example 49, 4-(3-Chloro-4-fluoro-phenylamino)-6-[(4,5,6,7-tetrafluoro-1H-indol-3-ylmethyl)-amino]-quinoline-3-carbonitrile]
200 | CS(=O)(=O)c1ccc(CNc2ccc3ncc(C#N)c(Nc4ccc(F)c(Cl)c4)c3c2)cc1 [Example 50, 4-(3-Chloro-4-fluoro-phenylamino)-6-(4-methanesulfonyl-benzylamino)-quinoline-3-carbonitrile]
3400 | CN(C)c1ccc(CNc2ccc3ncc(C#N)c(Nc4ccc(F)c(Cl)c4)c3c2)c(Br)c1 [Example 56, 6-(2-Bromo-4-dimethylamino-benzylamino)-4-(3-chloro-4-fluoro-phenylamino)-quinoline-3-carbonitrile]
1100 | CCOCCOc1ccc(Br)c(CNc2ccc3ncc(C#N)c(Nc4ccc(F)c(Cl)c4)c3c2)c1 [Example 58, 6-[2-Bromo-5-(2-ethoxy-ethoxy)-benzylamino]-4-(3-chloro-4-fluoro-phenylamino)-quinoline-3-carbonitrile]
> 40000 | CCOCCOc1ccc2c(c1)CN(c1ccc3ncc(C#N)c(Nc4ccc(F)c(Cl)c4)c3c1)C2=N [Example 60]
810 | N#Cc1cnc2ccc(NCC3CCOCC3)cc2c1Nc1ccc(F)c(Cl)c1 [Example 61, 4-(3-Chloro-4-fluoro-phenylamino)-6-[(tetrahydro-pyran-4-ylmethyl)-amino]-quinoline-3-carbonitrile]
> 40000 | N#Cc1cnc2ccc(NCC3CCNC3)cc2c1Nc1ccc(F)c(Cl)c1 (centres unmarked) [Example 62, 4-(3-Chloro-4-fluoro-phenylamino)-6-[(pyrrolidin-3-ylmethyl)-amino]-quinoline-3-carbonitrile]
420 | N#Cc1cnc2c(Br)cc(NCCN3CCOCC3)cc2c1Nc1cccc(Cl)c1 [Example 69, 8-bromo-4-(3-chlorophenylamino)-6-(2-morpholinoethylamino)quinoline-3-carbonitrile]
36 | N#Cc1cnc2c(Br)cc(NCc3cccnc3)cc2c1Nc1cccc(Cl)c1 [Example 70, 8-bromo-4-(3-chlorophenylamino)-6-(pyridin-3-ylmethylamino)quinoline-3-carbonitrile]
> 40000 | N#Cc1cnc2c(NC(=O)c3ccccc3)cc(NCc3cccnc3)cc2c1Nc1cccc(Cl)c1 [Example 73, N-(4-(3-chlorophenylamino)-3-cyano-6-(pyridin-3-ylmethylamino)quinolin-8-yl)benzamide]
6.8 | N#Cc1cnc2c(Br)cc(NCc3cnc[nH]3)cc2c1Nc1ccc(F)c(Cl)c1 [Example 76, 6-((1H-imidazol-5-yl)methylamino)-8-bromo-4-(3-chloro-4-fluorophenylamino)quinoline-3-carbonitrile]
75 | N#Cc1cnc2c(Br)cc(NCc3ccccn3)cc2c1Nc1ccc(F)c(Cl)c1 [Example 78, 8-bromo-4-(3-chloro-4-fluorophenylamino)-6-(pyridin-2-ylmethylamino)quinoline-3-carbonitrile]
570 | N#Cc1cnc2c(I)cc(NCc3cccnc3)cc2c1Nc1cccc(Cl)c1 [Example 79, 4-(3-chlorophenylamino)-8-iodo-6-(pyridin-3-ylmethylamino)quinoline-3-carbonitrile]

Continued, compound first:

Compound | IC50 [nM]
N#Cc1ccc(OCC(=O)O)c(CNc2ccc3ncc(C#N)c(Nc4ccc(F)c(Cl)c4)c3c2)c1 [Example 44, (2-{[4-(3-Chloro-4-fluoro-phenylamino)-3-cyano-quinolin-6-ylamino]-methyl}-4-cyano-phenoxy)-acetic acid] | 3300
COc1ncccc1CNc1ccc2ncc(C#N)c(Nc3ccc(F)c(Cl)c3)c2c1 [Example 51, 4-(3-Chloro-4-fluoro-phenylamino)-6-[(2-methoxy-pyridin-3-ylmethyl)-amino]-quinoline-3-carbonitrile] | 110
CC(C)(C)OC(=O)N1CCC(CNc2ccc3ncc(C#N)c(Nc4ccc(F)c(Cl)c4)c3c2)C1 (centres unmarked) [Example 52, 3-{[4-(3-Chloro-4-fluoro-phenylamino)-3-cyano-quinolin-6-ylamino]-methyl}-pyrrolidine-1-carboxylic acid tert-butyl ester] | 1500
N#Cc1cnc2ccc(NCc3cccc(O)c3)cc2c1Nc1ccc(F)c(Cl)c1 [Example 53, 4-(3-Chloro-4-fluoro-phenylamino)-6-(3-hydroxy-benzylamino)-quinoline-3-carbonitrile] | 540
N#Cc1cnc2ccc(NCc3ccccc3O)cc2c1Nc1ccc(F)c(Cl)c1 [Example 55, 4-(3-Chloro-4-fluoro-phenylamino)-6-(2-hydroxy-benzylamino)-quinoline-3-carbonitrile] | 1800
COCCOc1ccc(C#N)cc1CNc1ccc2ncc(C#N)c(Nc3ccc(F)c(Cl)c3)c2c1 [Example 57, 4-(3-Chloro-4-fluoro-phenylamino)-6-[5-cyano-2-(2-methoxy-ethoxy)-benzylamino]-quinoline-3-carbonitrile] | 650
CC(C)(C)OC(=O)N1CCCC(CNc2ccc3ncc(C#N)c(Nc4ccc(F)c(Cl)c4)c3c2)C1 (centres unmarked) [Example 63, 3-{[4-(3-Chloro-4-fluoro-phenylamino)-3-cyano-quinolin-6-ylamino]-methyl}-piperidine-1-carboxylic acid tert-butyl ester] | > 40000
N#Cc1cnc2ccc(NCC3CCCNC3)cc2c1Nc1ccc(F)c(Cl)c1 (centres unmarked) [Example 64, 4-(3-Chloro-4-fluoro-phenylamino)-6-[(piperidin-3-ylmethyl)-amino]-quinoline-3-carbonitrile] | > 40000
N#Cc1cnc2ccc(NCc3ccccc3)cc2c1Nc1ccc(N2CCOCC2)cc1 [Example 66, 6-(benzylamino)-4-(4-morpholinophenylamino)quinoline-3-carbonitrile] | > 40000
CN(C)C(=O)c1cc(NCCN2CCOCC2)cc2c(Nc3cccc(Cl)c3)c(C#N)cnc12 [Example 68, 4-(3-chlorophenylamino)-3-cyano-N,N-dimethyl-6-(2-morpholinoethylamino)quinoline-8-carboxamide] | 11000
CN(C)C(=O)c1cc(NCc2cccnc2)cc2c(Nc3cccc(Cl)c3)c(C#N)cnc12 [Example 71, 4-(3-chlorophenylamino)-3-cyano-N,N-dimethyl-6-(pyridin-3-ylmethylamino)quinoline-8-carboxamide] | 400
N#Cc1cnc2ccc(NCc3cccnc3)cc2c1Nc1cccc(Cl)c1 [Example 72, 4-(3-chlorophenylamino)-6-(pyridin-3-ylmethylamino)quinoline-3-carbonitrile] | 24
N#Cc1cnc2c(C#N)cc(NCc3cccnc3)cc2c1Nc1cccc(Cl)c1 [Example 74, 4-(3-chlorophenylamino)-6-(pyridin-3-ylmethylamino)quinoline-3,8-dicarbonitrile] | 140
N#Cc1cnc2c(NC=O)cc(NCc3cccnc3)cc2c1Nc1cccc(Cl)c1 [Example 75, N-(4-(3-chlorophenylamino)-3-cyano-6-(pyridin-3-ylmethylamino)quinolin-8-yl)formamide] | 2600
N#Cc1cnc2c(Br)cc(NCc3cccnc3)cc2c1Nc1ccc(F)c(Cl)c1 [Example 77, 8-bromo-4-(3-chloro-4-fluorophenylamino)-6-(pyridin-3-ylmethylamino) quinoline-3-carbonitrile] | 110
